Test results: PubChem BioAssay (NCI)
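48-hour exposure; five concentrations; linearly interpolated endpoints. TGI: concentration producing complete growth inhibition.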

Tests used:
Assay in all cases: NCI tumour cell line growth inhibition, 48 h
[1] = tested on: DLD-1 colon
[2] = tested on: DMS 114 small cell lung
[3] = tested on: DMS 273 small cell lung
[4] = tested on: RXF-631 renal
[5] = tested on: XF 498 CNS
[6] = tested on: LXFL 529 NSCLC
[7] = tested on: P388 leukemia
[8] = tested on: P388/ADR leukemia
[9] = tested on: SN12K1 renal

| Structure (SMILES) | TGI [1] [µM] | TGI [2] [µM] | TGI [3] [µM] | TGI [4] [µM] | TGI [5] [µM] | TGI [6] [µM] | TGI [7] [µM] | TGI [8] [µM] | TGI [9] [µM] |
| --- | --- | --- | --- | --- | --- | --- | --- | --- | --- |
| COc1c(Br)cc(CC(N)=O)c(O)c1Br | > 100 | > 100 | > 100 | > 100 | > 100 |  |  |  |  |
| C=CCOCCCCC(C(C)=O)C(=O)OC (configuration not stated) | > 100 |  |  |  | > 100 | > 100 |  |  |  |
| O=C(O)C(CS)N=c1c2ccccc2n(O)c2ccccc12 (configuration not stated) | > 100 | > 100 | > 100 | > 100 |  | > 100 |  |  |  |
| COC(=O)/C=C/c1cc(OC)c(OC)c(OC)c1 | > 100 | > 100 | > 100 | > 100 | > 100 | > 100 |  |  |  |
| O=C(O)C(CO)NC(=O)n1c2ccccc2c2ccccc21 (configuration not stated) | > 100 | > 100 | > 100 |  | > 100 | > 100 |  |  |  |
| Cc1cccc(C)c1NC(=O)C(=O)C1C(=O)NC(=O)NC1=O | > 100 | > 100 | > 100 | > 100 | > 100 | > 100 |  |  |  |
| O=C1NC2OC(CO)C(O)C(O1)C2O (configuration not stated) | > 100 | > 100 | > 100 |  | > 100 | > 100 |  |  |  |
| O=C(CC1=NCCN1)c1ccccc1 | > 750 | > 750 | > 750 |  | > 750 |  | > 750 | > 750 | > 750 |
| CC(C)(C)C1CCC2(CC1)c1[nH]c3ccccc3c1C1(CCC(C(C)(C)C)CC1)c1[nH]c3ccccc3c12 (configuration not stated) | > 100 | 57.3 | > 100 |  | > 100 | > 100 |  |  |  |
| CCOC(=O)C1=C(OC(OCC)C(CC)[Se]c2ccccc2)CCCC1 (configuration not stated) | 35.5 |  | 29.2 | 27.9 | 46.5 | 91.8 |  |  |  |
| COC1(OC)CCCCC2c3cccc(OC(C)=O)c3C21OC(C)=O (configuration not stated) | > 100 | > 100 | > 100 |  | > 100 | > 100 |  |  |  |
